The numbers were not newly measured in US9913833B2, “Methods of treating developmental disorders using pipradrol” (Ovid Therapeutics Inc., priority 2015, dated 2018), which cites them from elsewhere.

The data set relates to depression. The following applies: published study on 111 individuals with depression.

As to `OC(c1ccccc1)(c1ccccc1)C1CCCCN1` (stereo not shown) [pipradrol], the “efficacy in depression compared with placebo” value is recorded as “not superior to placebo”.
